In patent US20220142897A1, “Formulation and Use Thereof in the Treatment of Keratosis Pilaris” (priority 2020, published 2022):

Experiments:
sebaceous glands [1] = assay: Stimulation of sebaceous glands / sebum production by topical DHEA; assay type: in vivo, human
Excerpt: The main component of the current invention is DHEA, a steroid hormone. Without being bound by theory, it is hypothesized that DHEA in the current invention serves to simulate the production of sebaceous glands. […] In contrast, the upper limits of DHEA in the current invention can be as high as 100%.
Daily applications of DHEA can increase the output of sebaceous glands by up to 60% within 3 months. This makes DHEA a particularly viable and effective treatment for increasing sebum output in those with KP. Patients with KP typically have widespread sebaceous gland atrophy in the affected areas of the skin, causing downstream symptoms of skin dryness, inflammation, and could potentially be the root cause of the keratin papules that develop. DHEA also is suspected to help modulate and regulate keratinocyte proliferation. It is suspected that by regulating keratinocytes in the follicular channel, the rate at which keratin blockages forms is reduced.

sebaceous glands [2] = conditions: cited from earlier work

SMILES: C[C@]12CC[C@H](O)CC1=CC[C@@H]1[C@@H]2CC[C@]2(C)C(=O)CC[C@@H]12 [DHEA, dehydroepiandrosterone]
- sebum production as observed by softness and oiliness (sebaceous glands [1]; 2% DHEA): increase in sebum production
- sebum production as observed by softness and oiliness (sebaceous glands [1]; DHEA reduced to approximately 0.1%): Such phenotypes are observed
- stimulation of the sebaceous glands (sebaceous glands [1]; concentrations of DHEA at less than 0.1%, clinical studies): ineffective
- increase of the output of sebaceous glands (sebaceous glands [2]; daily applications, within 3 months): up to 60%
- safety of continuous topical application (sebaceous glands [2]; low concentrations to avoid systemic circulation): safe

SMILES: C[C@]12CCC(=O)C[C@@H]1CC[C@@H]1[C@@H]2CC[C@]2(C)[C@@H](O)CC[C@@H]12 [DHT, dihydrotestosterone]
- potency to stimulate sebaceous gland to produce sebocytes (sebaceous glands [2]; relative to DHEA): more potent than DHEA
